Our source for the IC50 values is patent US9938273B2 (Plexxikon Inc., priority 2015, dated 2018).

In general, IC50 refers to the concentration that inhibits the measured activity by half.

The subject of experiment [1] is MOLM-14 D835Y cells, FLT3 ITD and FLT3 D835Y. The experiment can be described thus: Cell proliferation assay (CellTiter-Glo), MOLM-14 D835Y. The format is cell-based. As to conditions: Homo sapiens, 72 h, 3d-Growth, GMean. Put shortly:
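Three-day growth at 37 °C, 5% CO2 under compound (1 μM top final, 1:3 dilutions, eight points, 0.2% DMSO), read as ATP luminescence by CellTiter-Glo for IC50. Cells: MOLM-14 with FLT3 ITD plus D835Y or F691L, and IL-3-deprived Ba/F3 transfected with FLT3 ITD/D835Y, 1×10^4 per well.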
(ATP-based viability assays read luminescence as a measure of living cells.)

The target of another experiment is T1, FLT3-D835Y (Homo sapiens, UniProt P36888, D835Y).
T1 construct: purchased Invitrogen PV3967
T1 sequence (P36888 27-993 D835Y): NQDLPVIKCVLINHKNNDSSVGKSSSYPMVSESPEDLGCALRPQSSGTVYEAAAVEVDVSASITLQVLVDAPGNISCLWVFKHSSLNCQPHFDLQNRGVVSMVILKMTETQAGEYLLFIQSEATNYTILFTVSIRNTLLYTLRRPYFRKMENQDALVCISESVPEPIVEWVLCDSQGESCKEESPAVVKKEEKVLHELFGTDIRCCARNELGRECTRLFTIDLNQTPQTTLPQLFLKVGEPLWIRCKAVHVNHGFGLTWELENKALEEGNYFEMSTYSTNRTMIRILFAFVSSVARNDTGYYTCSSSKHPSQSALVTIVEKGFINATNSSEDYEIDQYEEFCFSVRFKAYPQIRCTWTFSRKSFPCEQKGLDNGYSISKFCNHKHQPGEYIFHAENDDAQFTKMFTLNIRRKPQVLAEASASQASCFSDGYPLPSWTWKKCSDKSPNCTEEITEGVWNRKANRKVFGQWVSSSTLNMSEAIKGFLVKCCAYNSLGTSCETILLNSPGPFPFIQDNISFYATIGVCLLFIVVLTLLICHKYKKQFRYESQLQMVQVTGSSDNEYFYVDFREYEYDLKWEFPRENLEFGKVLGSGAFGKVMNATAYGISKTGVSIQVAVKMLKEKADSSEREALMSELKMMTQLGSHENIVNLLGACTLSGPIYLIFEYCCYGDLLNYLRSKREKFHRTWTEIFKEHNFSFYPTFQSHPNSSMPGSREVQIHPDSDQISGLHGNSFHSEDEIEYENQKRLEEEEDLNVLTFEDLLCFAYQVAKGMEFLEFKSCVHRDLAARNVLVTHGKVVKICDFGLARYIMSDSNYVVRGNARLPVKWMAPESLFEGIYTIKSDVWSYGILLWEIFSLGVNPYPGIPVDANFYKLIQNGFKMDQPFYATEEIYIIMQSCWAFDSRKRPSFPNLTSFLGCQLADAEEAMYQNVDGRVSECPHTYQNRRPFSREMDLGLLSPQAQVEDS
The experiment can be described thus: AlphaScreen kinase assay with recombinant enzyme, FLT3-D835Y. The settings on record: 8pt, GMean. The format is biochemical. Put shortly:
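AlphaScreen, biotinylated poly(Glu4-Tyr) 30 nM final; PY20 anti-pTyr acceptor and streptavidin donor beads 10 μg/mL; IC50 final conc. 10 μM (FLT3-D835Y, FLT3-ITD) / 100 μM (c-KIT); detection incubations 20 + 60 min RT; 580 nm emission.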
(Alpha assays give light when donor and acceptor beads are brought close together.)

Regarding `CCc1ncc(-c2cc3cc(-c4cccc(C(=O)NC(C)(C)C#N)n4)cnc3[nH]2)cn1` [Compound P-0205, N-(1-cyano-1-methyl-ethyl)-6-[2-(2-ethylpyrimidin-5-yl)-1H-pyrrolo[2,3-b]pyridin-5-yl]pyridine-2-carboxamide], the IC50 (in experiment [1]; on FLT3-D835Y) was 0.0001 to 10 µM each time.

For the compound `CCCOc1ncc(-c2cc3cc(-c4cccc(C(=O)NC(C)(C)C#N)n4)cnc3[nH]2)cn1` [Compound P-0206, N-(1-cyano-1-methyl-ethyl)-6-[2-(2-propoxypyrimidin-5-yl)-1H-pyrrolo[2,3-b]pyridin-5-yl]pyridine-2-carboxamide], the IC50 (in experiment [1]; on FLT3-D835Y) was 0.0001 to 10 µM in each case.

As for `CC(C)(C#N)NC(=O)c1cccc(-c2cnc3[nH]c(-c4ccc(F)nc4)cc3c2)n1` [Compound P-0208, N-(1-cyano-1-methyl-ethyl)-6-[2-(6-fluoro-3-pyridyl)-1H-pyrrolo[2,3-b]pyridin-5-yl]pyridine-2-carboxamide], the IC50 (in experiment [1]; at FLT3-D835Y) was 0.0001 to 10 µM each time.

As to `CC(C)(C#N)NC(=O)c1cccc(-c2cnc3[nH]c(-c4cnc(C(C)(C)O)nc4)cc3c2)n1` [Compound P-0211, N-(1-cyano-1-methyl-ethyl)-6-[2-[2-(1-hydroxy-1-methyl-ethyl)pyrimidin-5-yl]-1H-pyrrolo[2,3-b]pyridin-5-yl]pyridine-2-carboxamide], the IC50 (in experiment [1]; on FLT3-D835Y) was 0.0001 to 10 µM each time.
